The supplement of paper PMC10307832

What was measured:
Experiment in all cases: relative viability (nuclei count vs DMSO), 5 days (fraction); higher = more cells survive
Linsitinib + Tozasertib = compound: C[C@]1(O)C[C@@H](c2nc(-c3ccc4ccc(-c5ccccc5)nc4c3)c3c(N)nccn32)C1 [Linsitinib] + Cc1cc(Nc2cc(N3CCN(C)CC3)nc(Sc3ccc(NC(=O)C4CC4)cc3)n2)n[nH]1 [Tozasertib] (partner 0.1 µM)
In short: (§1)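 A single step with final 0.05% Triton X-100, 1% formaldehyde and 1 ug/ml Hoechst fixed the cells and stained nuclei 5 days after treatment. Lung cancer cell lines in 1536-well plates had been treated by pin tool the day after seeding with one drug alone or a fixed anchor-drug dose plus five library-drug doses (not always all listed) in √10 steps, and nuclei were counted on 4× images. Relative viability is the ratio of nuclei in treated wells to nuclei in vehicle wells, taken as the median of duplicate plates.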

Linsitinib + Bortezomib = compound: C[C@]1(O)C[C@@H](c2nc(-c3ccc4ccc(-c5ccccc5)nc4c3)c3c(N)nccn32)C1 [Linsitinib] + CC(C)C[C@H](NC(=O)[C@H](Cc1ccccc1)NC(=O)c1cnccn1)B(O)O [Bortezomib] (partner 0.002 µM)
In short: as §1

Linsitinib + Pictilisib = compound: C[C@]1(O)C[C@@H](c2nc(-c3ccc4ccc(-c5ccccc5)nc4c3)c3c(N)nccn32)C1 [Linsitinib] + CS(=O)(=O)N1CCN(Cc2cc3nc(-c4cccc5[nH]ncc45)nc(N4CCOCC4)c3s2)CC1 [Pictilisib] (partner 1 µM)
In short: as §1

Ispinesib + Pemetrexed = compound: Cc1ccc(C(=O)N(CCCN)[C@@H](c2nc3cc(Cl)ccc3c(=O)n2Cc2ccccc2)C(C)C)cc1 [Ispinesib] + Nc1nc2[nH]cc(CCc3ccc(C(=O)N[C@@H](CCC(=O)O)C(=O)O)cc3)c2c(=O)[nH]1 [Pemetrexed] (partner 0.2 µM)
In short: as §1

Cell Line | relative viability (Linsitinib + Tozasertib; first compound 0.01 µM) | relative viability (Linsitinib + Tozasertib; first compound 0.03162 µM) | relative viability (Linsitinib + Tozasertib; first compound 0.1 µM) | relative viability (Linsitinib + Tozasertib; first compound 0.3162 µM) | relative viability (Linsitinib + Tozasertib; first compound 1 µM) | relative viability (Linsitinib + Bortezomib; first compound 0.01 µM) | relative viability (Linsitinib + Bortezomib; first compound 0.03162 µM) | relative viability (Linsitinib + Bortezomib; first compound 0.1 µM) | relative viability (Linsitinib + Bortezomib; first compound 0.3162 µM) | relative viability (Linsitinib + Bortezomib; first compound 1 µM) | relative viability (Linsitinib + Pictilisib; first compound 0.03162 µM) | relative viability (Linsitinib + Pictilisib; first compound 0.1 µM) | relative viability (Linsitinib + Pictilisib; first compound 0.3162 µM) | relative viability (Linsitinib + Pictilisib; first compound 1 µM) | relative viability (Ispinesib + Pemetrexed; first compound 0.001 µM) | relative viability (Ispinesib + Pemetrexed; first compound 0.003162 µM) | relative viability (Ispinesib + Pemetrexed; first compound 0.01 µM) | relative viability (Ispinesib + Pemetrexed; first compound 0.03162 µM) | relative viability (Ispinesib + Pemetrexed; first compound 0.1 µM) | relative viability (Linsitinib + Pictilisib; first compound 0.01 µM)
NCI-H661 | 0.361 | 0.383 | 0.335 | 0.308 | 0.368 | 0.893 | 0.801 | 0.761 | 0.986 | 0.749 | 0.375 | 0.329 | 0.464 | 0.332 | 0.933 | 0.969 | 0.92 | 0.596 | 0.212 | 
NCI-H1944 | 0.247 | 0.256 | 0.235 | 0.209 | 0.221 |  |  |  |  |  | 0.354 | 0.344 | 0.349 | 0.299 | 0.682 | 0.61 | 0.588 | 0.389 | 0.218 | 0.33
NCI-H23 | 0.365 | 0.485 | 0.372 | 0.437 | 0.331 | 0.96 | 1.17 | 1.06 | 0.681 | 0.589 | 0.412 | 0.521 | 0.184 | 0.395 | 0.68 | 0.785 | 0.726 | 0.522 | 0.207 | 0.445
SW 900 | 0.635 | 0.598 | 0.535 | 0.513 | 0.342 |  |  |  |  |  |  |  |  |  | 0.482 | 0.516 | 0.525 | 0.469 | 0.189 | 
NCI-H2342 | 0.554 | 0.54 | 0.516 | 0.651 | 0.412 |  |  |  |  |  |  |  |  |  | 0.772 | 0.813 | 0.924 | 0.751 | 0.468 | 
HCC-366 | 0.108 | 0.147 | 0.187 | 0.0897 | 0.0876 | 1.06 | 1.02 | 1.1 | 0.959 | 0.906 | 0.0857 | 0.0909 |  | 0.108 | 0.18 | 0.189 | 0.176 | 0.153 | 0.0222 | 0.127
EBC-1 |  |  |  |  |  | 0.59 | 0.536 | 0.579 | 0.519 | 0.442 | 0.347 | 0.381 | 0.299 | 0.246 |  |  |  |  |  | 0.499
ChaGo-K-1 | 0.208 | 0.184 | 0.221 | 0.227 | 0.2 | 1.05 | 0.98 | 0.922 | 0.443 | 1 | 0.665 | 0.576 | 0.317 | 0.666 | 0.248 | 0.274 | 0.26 | 0.256 | 0.154 | 0.809
LCLC-97TM1 | 0.193 | 0.29 | 0.174 | 0.159 | 0.257 | 0.316 | 0.488 | 0.578 | 0.236 | 0.18 | 0.254 | 0.208 | 0.117 | 0.154 | 0.186 | 0.168 | 0.173 | 0.167 | 0.0653 | 0.283
NCI-H1299 |  |  |  |  |  | 1.06 | 0.972 | 1.05 | 0.944 | 0.986 | 0.794 | 0.766 | 0.796 | 0.648 |  |  |  |  |  | 0.864
EMC-BAC-2 | 0.294 | 0.271 | 0.291 | 0.206 | 0.255 | 1.08 | 1.05 | 1.01 | 0.628 | 0.917 | 0.489 | 0.496 | 0.455 | 0.412 | 0.455 | 0.418 | 0.405 | 0.352 | 0.327 | 0.47
NCI-H1623 | 0.363 | 0.445 | 0.412 |  | 0.364 |  |  |  |  |  |  |  |  |  |  |  |  |  |  | 
NCI-H441 | 0.612 | 1.08 | 0.671 | 0.509 | 0.404 | 0.398 | 0.428 | 0.455 | 0.586 | 0.413 | 0.683 | 0.498 | 0.413 | 0.412 | 0.245 | 0.286 | 0.299 | 0.2 | 0.171 | 0.51
NCI-H1793 | 0.388 | 0.454 | 0.316 | 0.313 | 0.274 |  |  |  |  |  | 0.311 | 0.238 | 0.235 | 0.29 | 1.09 | 0.943 | 1.12 | 0.775 | 0.232 | 0.309
IA-LM |  |  |  |  |  | 0.748 | 0.824 | 0.789 | 0.648 | 0.678 | 0.409 | 0.334 | 0.349 | 0.156 |  |  |  |  |  | 0.329
A549 |  |  |  |  |  |  |  |  |  |  | 0.442 | 0.344 | 0.242 | 0.273 |  |  |  |  |  | 0.514
NCI-H2170 | 0.732 | 0.76 | 0.681 | 0.513 | 0.678 |  |  |  |  |  | 0.317 | 0.308 | 0.26 | 0.23 | 0.357 | 0.266 | 0.256 | 0.205 | 0.158 | 0.336
NCI-H1563 |  |  |  |  |  | 0.835 | 0.86 | 0.87 | 0.719 | 0.827 | 0.668 | 0.647 | 0.657 | 0.545 | 0.849 | 0.859 | 0.743 | 0.771 | 0.661 | 0.665
NCI-H727 | 0.643 | 0.67 | 0.689 | 0.623 | 0.523 | 0.86 | 0.856 | 0.948 | 0.392 | 0.501 | 0.353 | 0.342 | 0.281 | 0.17 |  |  |  |  |  | 0.414
Calu-6 |  |  |  |  |  | 0.996 | 1.04 | 1.05 | 0.867 | 0.905 | 0.805 | 0.916 | 0.748 | 0.716 |  |  |  |  |  | 0.878
NCI-H358 | 0.0907 | 0.0851 | 0.114 | 0.0862 | 0.0939 |  |  |  |  |  | 0.232 | 0.333 | 0.261 | 0.281 | 0.176 | 0.146 | 0.17 | 0.169 | 0.135 | 0.317
SK-MES-1 | 0.92 | 0.895 | 0.927 | 0.8 | 0.676 |  |  |  |  |  | 0.377 | 0.32 | 0.293 | 0.339 | 1.02 | 1.04 | 0.805 | 0.206 | 0.234 | 0.357
NCI-H1648 | 0.5 | 0.697 | 0.412 |  | 0.396 |  |  |  |  |  |  |  |  |  | 0.92 | 0.723 | 0.802 | 0.751 | 0.305 | 
